Results taken from PMC6677754, “In silico design and optimization of selective membranolytic anticancer peptides” (Scientific Reports, 2019).
Peptide text beside a SMILES is read from it.

Columns and labels:
Test in all cases: NCI-60 screening
Format in all cases: cell-based, human
BT-549 = BT-549 (Breast); log GI50; 48 h, sulforhodamine B, 10^-4 to 10^-8 M
Description: (§1) NCI-60 screening procedure
(§2) The NCI-60 screening procedure was performed by the Developmental Therapeutics Program of the National Cancer Institute. The procedure was performed as previously described24 in 96-well microtiter plates. Each peptide was tested in a 5-concentration assay, starting at 10^-4 M and diluting 10-fold to the lowest 10^-8 M concentration. The peptides were incubated for 48 h and the cell concentration was assayed by using the sulforhodamine B assay25 and optical density measurements. The growth inhibition (GI50) value24, measures the growth inhibitory power of the drug agent. The GI50 value is the concentration of the test drug for which the condition in Eq. S1 is met, where T is the optical density of the test well after a 48-h exposure to the peptide, T0 the optical density before applying the peptide drug and C the control optical density of a well where no peptide was applied.

CCRF-CEM = CCRF-CEM (Leukemia); log GI50; 48 h, sulforhodamine B, 10^-4 to 10^-8 M
Description: as §1, §2

COLO 205 = COLO 205 (Colon); log GI50; 48 h, sulforhodamine B, 10^-4 to 10^-8 M
Description: as §1, §2

HCC-2998 = HCC-2998 (Colon); log GI50; 48 h, sulforhodamine B, 10^-4 to 10^-8 M
Description: as §1, §2

HCT-116 = HCT-116 (Colon); log GI50; 48 h, sulforhodamine B, 10^-4 to 10^-8 M
Description: as §1, §2

HL-60 = HL-60 (Leukemia); log GI50; 48 h, sulforhodamine B, 10^-4 to 10^-8 M
Description: as §1, §2

HOP-92 = HOP-92 (Lung); log GI50; 48 h, sulforhodamine B, 10^-4 to 10^-8 M
Description: as §1, §2

IGVROV1 = IGVROV1 (Ovarian); log GI50; 48 h, sulforhodamine B, 10^-4 to 10^-8 M
Description: as §1, §2

LOX IMVI = LOX IMVI (Melanoma); log GI50; 48 h, sulforhodamine B, 10^-4 to 10^-8 M
Description: as §1, §2

M14 = M14 (Melanoma); log GI50; 48 h, sulforhodamine B, 10^-4 to 10^-8 M
Description: as §1, §2

MDA-MB-231/ATCC = MDA-MB-231/ATCC (Breast); log GI50; 48 h, sulforhodamine B, 10^-4 to 10^-8 M
Description: as §1, §2

NCI-H23 = NCI-H23 (Lung); log GI50; 48 h, sulforhodamine B, 10^-4 to 10^-8 M
Description: as §1, §2

NCI-H460 = NCI-H460 (Lung); log GI50; 48 h, sulforhodamine B, 10^-4 to 10^-8 M
Description: as §1, §2

PC-3 = PC-3 (Prostate); log GI50; 48 h, sulforhodamine B, 10^-4 to 10^-8 M
Description: as §1, §2

SF-539 = SF-539 (CNS); log GI50; 48 h, sulforhodamine B, 10^-4 to 10^-8 M
Description: as §1, §2

SK-MEL-28 = SK-MEL-28 (Melanoma); log GI50; 48 h, sulforhodamine B, 10^-4 to 10^-8 M
Description: as §1, §2

SK-MEL-2 = SK-MEL-2 (Melanoma); log GI50; 48 h, sulforhodamine B, 10^-4 to 10^-8 M
Description: as §1, §2

SK-MEL-5 = SK-MEL-5 (Melanoma); log GI50; 48 h, sulforhodamine B, 10^-4 to 10^-8 M
Description: as §1, §2

SK-OV-3 = SK-OV-3 (Ovarian); log GI50; 48 h, sulforhodamine B, 10^-4 to 10^-8 M
Description: as §1, §2

SN12C = SN12C (Renal); log GI50; 48 h, sulforhodamine B, 10^-4 to 10^-8 M
Description: as §1, §2

SNB-19 = SNB-19 (CNS); log GI50; 48 h, sulforhodamine B, 10^-4 to 10^-8 M
Description: as §1, §2

SNB-75 = SNB-75 (CNS); log GI50; 48 h, sulforhodamine B, 10^-4 to 10^-8 M
Description: as §1, §2

SW-620 = SW-620 (Colon); log GI50; 48 h, sulforhodamine B, 10^-4 to 10^-8 M
Description: as §1, §2

T-47D = T-47D (Breast); log GI50; 48 h, sulforhodamine B, 10^-4 to 10^-8 M
Description: as §1, §2

U251 = U251 (CNS); log GI50; 48 h, sulforhodamine B, 10^-4 to 10^-8 M
Description: as §1, §2

UACC-62 = UACC-62 (Melanoma); log GI50; 48 h, sulforhodamine B, 10^-4 to 10^-8 M
Description: as §1, §2

UO-31 = UO-31 (Renal); log GI50; 48 h, sulforhodamine B, 10^-4 to 10^-8 M
Description: as §1, §2

SMILES | Log GI (M) (BT-549) | Log GI (M) (CCRF-CEM) | Log GI (M) (COLO 205) | Log GI (M) (HCC-2998) | Log GI (M) (HCT-116) | Log GI (M) (HL-60) | Log GI (M) (HOP-92) | Log GI (M) (IGVROV1) | Log GI (M) (LOX IMVI) | Log GI (M) (M14) | Log GI (M) (MDA-MB-231/ATCC) | Log GI (M) (NCI-H23) | Log GI (M) (NCI-H460) | Log GI (M) (PC-3) | Log GI (M) (SF-539) | Log GI (M) (SK-MEL-28) | Log GI (M) (SK-MEL-2) | Log GI (M) (SK-MEL-5) | Log GI (M) (SK-OV-3) | Log GI (M) (SN12C) | also measured
CC[C@H](C)[C@H](NC(=O)[C@H](CCCCN)NC(=O)[C@H](CCCCN)NC(=O)[C@@H](NC(=O)[C@@H](NC(=O)[C@@H](N)Cc1c[nH]cn1)[C@@H](C)CC)[C@@H](C)CC)C(=O)N[C@@H](CCCNC(=N)N)C(=O)N[C@H](C(=O)N[C@@H](Cc1c[nH]c2ccccc12)C(=O)N[C@@H](Cc1ccc(O)cc1)C(=O)N[C@@H](CCCNC(=N)N)C(=O)N[C@@H](CCCCN)C(=O)N[C@@H](C)C(=O)N[C@@H](Cc1c[nH]c2ccccc12)C(=O)N[C@@H](Cc1c[nH]cn1)C(=O)N[C@H](C(=O)N[C@@H](CC(C)C)C(=O)NCC(=O)N[C@@H](CCCCN)C(=O)N[C@H](C(N)=O)C(C)C)C(C)C)[C@@H](C)O [Off2] (H-HIIKKIRTWYRKAWHVLGKV-NH2) | -4.89 | -5.43 | -5.68 | -5.41 | -4.76 | -5.37 | -5.68 | -5.36 | -4.66 | -5.38 | -5.19 | -5.31 | -5.48 | -5.55 | -5.67 | -5.58 | -5.28 | -5.40 | -5.20 | -5.53 | Log GI (M) (SNB-19): -4.74 M; Log GI (M) (SNB-75): -4.92 M; Log GI (M) (SW-620): -5.02 M; Log GI (M) (T-47D): -5.72 M; Log GI (M) (U251): -5.14 M; Log GI (M) (UACC-62): -5.69 M; Log GI (M) (UO-31): -4.73 M
CC[C@H](C)[C@H](NC(=O)[C@H](CCCNC(=N)N)NC(=O)[C@H](Cc1c[nH]c2ccccc12)NC(=O)[C@@H](NC(=O)[C@H](CCCCN)NC(=O)[C@H](CCCCN)NC(=O)[C@@H](NC(=O)[C@@H](NC(=O)[C@@H](NC(=O)[C@H](CCCCN)NC(=O)[C@H](Cc1ccccc1)NC(=O)[C@H](CCCCN)NC(=O)[C@H](CCCCN)NC(=O)[C@H](Cc1ccccc1)NC(=O)[C@@H](NC(=O)[C@@H](N)CCCCN)[C@@H](C)CC)[C@@H](C)O)[C@@H](C)CC)[C@@H](C)CC)C(C)C)C(=O)N[C@@H](Cc1ccccc1)C(=O)NCC(=O)N[C@@H](CCCNC(=N)N)C(=O)N[C@@H](Cc1ccccc1)C(N)=O [AmphiArc2] (H-KIFKKFKTIIKKVWRIFGRF-NH2) | -5.45 | -5.60 | -5.58 | -5.58 | -5.49 | -5.28 | -5.70 | -5.68 | -5.53 | -5.62 | -5.72 | -5.61 | -5.62 | -5.66 | -5.72 | -5.66 | -5.58 | -5.64 | -5.50 | -5.69 | Log GI (M) (SNB-19): -5.58 M; Log GI (M) (SNB-75): -5.60 M; Log GI (M) (SW-620): -5.59 M; Log GI (M) (T-47D): -5.66 M; Log GI (M) (U251): -5.52 M; Log GI (M) (UACC-62): -5.69 M; Log GI (M) (UO-31): -5.74 M
